Test results: US8247211B2, “Glycopeptide antibiotics” (American Cyanamid Company, priority 2001, dated 2012)
Values after ≈ are worked out from the molar mass of the structure shown.

How the values were obtained:
Enterococcus sp. = experiment: In vitro antibacterial evaluation: minimum inhibitory concentration (MIC), broth dilution method; type: cell-based; settings: 18 hours at 35° C.
Summary of the method: (§1)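 Susceptibility determined by NCCLS-recommended broth dilution (M7-A2), Muller-Hinton II […]. Concentration span 64-0.06 μg/mL, inoculum 5×10^5 CFU/mL. Isolates include strains resistant to methicillin, penicillin and/or vancomycin.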

Streptococcus sp. = experiment: as above; type: cell-based; settings: 18 hours at 35° C.
Summary of the method: as §1

Staphylococcus sp. = experiment: as above; type: cell-based
Summary of the method: as §1

Escherichia coli = experiment: as above; type: cell-based; settings: 18 hours at 35° C.
Summary of the method: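 MIC read as lowest drug level preventing visible growth. Organisms at 5×10^5 CFU/mL were exposed to a 64-0.06 μg/mL dilution series in Muller-Hinton II […] following NCCLS broth dilution standard M7-A2.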

[1] = Anatomic pathology (heart and kidney histopathology) in mice; type: in vivo, CD-1 mice; settings: 20 mg/kg intravenously daily for 9 days, microscopic histopathology on day 10
Summary of the method: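 Juvenile CD-1 mice (20 days old; 5 vehicle, 5 treated) received glycopeptide antibiotic 20 mg/kg i.v. daily for 9 days. Necropsied tissues formalin-fixed, paraffin-embedded, H&E stained and examined microscopically; findings graded slight to severe versus controls.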

[2] = test system: Staphylococcus aureus-SMITH (GC 4543); experiment: Acute lethal infection in mice (ED50); type: in vivo; settings: female CD-1 mice, intraperitoneal challenge, intravenous dose 30 min. after infection, 7 day survival ratios
Summary of the method: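 Lethal systemic infection model: female CD-1 mice, 20 ± 1-2 g, intraperitoneal challenge. Single intravenous treatment 30 min after infection; 7-day survival, pooled from 3 tests, gives ED50.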

[3] = broth dilution, inoculum 5×10^5 CFU/mL

Structure (SMILES): CC(C1CCCCC1)C1NC(=O)CNC(=O)C(CO)NC(=O)C(C(O)C2CNC(=N)N2C2OC(CO)C(O)C(O)C2O)NC(=O)C(C(O)C2CNC(=N)N2)NC(=O)C(Cc2ccc(OC3OC(CO)C(OC4OC5COC6(OC5C(O)C4O)C4CC5CC(C4)CC6C5)C(O)C3O)cc2)NC1=O (stereo not drawn) [Example 221, Cyclo[3-cyclohexyl-2-aminobutanoyl-O-[4-O-[4,6-O-(2-adamantylidene)hexopyranosyl]hexopyranosyl]tyrosyl-3-(2-iminoimidazolidin-4-yl)seryl-3-(3-hexopyranosyl-2-iminoimidazolidin-4-yl)serylserylglycyl]]
- MIC Enterococcus avium (GC 4558) (Enterococcus sp.; Enterococcus avium (GC 4558)): 2 µg/mL (≈ 1.4 µM)
- MIC Enterococcus faecalis (ATCC 29212) (Enterococcus sp.; Enterococcus faecalis (ATCC 29212)): 2 µg/mL (≈ 1.4 µM)
- MIC Enterococcus faecalis (GC 2242) (Enterococcus sp.; Enterococcus faecalis (GC 2242)): 2 µg/mL (≈ 1.4 µM)
- MIC Enterococcus faecalis (GC 2691) (Enterococcus sp.; Enterococcus faecalis (GC 2691)): 2 µg/mL (≈ 1.4 µM)
- MIC Enterococcus faecalis (GC 3059) (Enterococcus sp.; Enterococcus faecalis (GC 3059)): 1 µg/mL (≈ 0.698 µM)
- MIC Enterococcus faecalis (GC 4552) (Enterococcus sp.; Enterococcus faecalis (GC 4552)): 2 µg/mL (≈ 1.4 µM)
- MIC Enterococcus faecalis (GC 4553) (Enterococcus sp.; Enterococcus faecalis (GC 4553)): 2 µg/mL (≈ 1.4 µM)
- MIC Enterococcus faecalis (GC 4554) (Enterococcus sp.; Enterococcus faecalis (GC 4554)): 2 µg/mL (≈ 1.4 µM)
- MIC Enterococcus faecalis (GC 6189) (Enterococcus sp.; Enterococcus faecalis (GC 6189)): 1 µg/mL (≈ 0.698 µM)
- MIC Enterococcus faecium (GC 2243) (Enterococcus sp.; Enterococcus faecium (GC 2243)): 2 µg/mL (≈ 1.4 µM)
- MIC Enterococcus faecium (GC 4556) (Enterococcus sp.; Enterococcus faecium (GC 4556)): 2 µg/mL (≈ 1.4 µM)
- MIC Enterococcus faecium (GC 4557) (Enterococcus sp.; Enterococcus faecium (GC 4557)): 1 µg/mL (≈ 0.698 µM)
- MIC Enterococcus avium (GC 4558) (Enterococcus sp.; [3]): 2 µg/mL (≈ 1.4 µM)
- MIC Enterococcus faecalis (ATCC 29212) (Enterococcus sp.; [3]): 2 µg/mL (≈ 1.4 µM)
- MIC Enterococcus faecalis (GC 2242) (Enterococcus sp.; [3]): 2 µg/mL (≈ 1.4 µM)
- MIC Enterococcus faecalis (GC 2691) (Enterococcus sp.; [3]): 2 µg/mL (≈ 1.4 µM)
- MIC Enterococcus faecalis (GC 3059) (Enterococcus sp.; [3]): 1 µg/mL (≈ 0.698 µM)
- MIC Enterococcus faecalis (GC 4552) (Enterococcus sp.; [3]): 2 µg/mL (≈ 1.4 µM)
- MIC Enterococcus faecalis (GC 4553) (Enterococcus sp.; [3]): 2 µg/mL (≈ 1.4 µM)
- MIC Enterococcus faecalis (GC 4554) (Enterococcus sp.; [3]): 2 µg/mL (≈ 1.4 µM)
- MIC Enterococcus faecalis (GC 6189) (Enterococcus sp.; [3]): 1 µg/mL (≈ 0.698 µM)
- MIC Enterococcus faecium (GC 2243) (Enterococcus sp.; [3]): 2 µg/mL (≈ 1.4 µM)
- MIC Enterococcus faecium (GC 4556) (Enterococcus sp.; [3]): 2 µg/mL (≈ 1.4 µM)
- MIC Enterococcus faecium (GC 4557) (Enterococcus sp.; [3]): 1 µg/mL (≈ 0.698 µM)
- MIC Streptococcus agalactiae (GC 4564) (Streptococcus sp.; Streptococcus agalactiae (GC 4564)): <0.12 µg/mL
- MIC Streptococcus pneumoniae (ATCC 6301) (Streptococcus sp.; Streptococcus pneumoniae (ATCC 6301)): <0.12 µg/mL
- MIC Streptococcus pneumoniae (GC 1894) (Streptococcus sp.; Streptococcus pneumoniae (GC 1894)): <0.12 µg/mL
- MIC Streptococcus pneumoniae (GC 4565) (Streptococcus sp.; Streptococcus pneumoniae (GC 4565)): <0.12 µg/mL
- MIC Streptococcus pyogenes (GC 4563) (Streptococcus sp.; Streptococcus pyogenes (GC 4563)): <0.12 µg/mL
- MIC Streptococcus agalactiae (GC 4564) (Streptococcus sp.; [3]): <0.12 µg/mL
- MIC Streptococcus pneumoniae (ATCC 6301) (Streptococcus sp.; [3]): <0.12 µg/mL
- MIC Streptococcus pneumoniae (GC 1894) (Streptococcus sp.; [3]): <0.12 µg/mL
- MIC Streptococcus pneumoniae (GC 4565) (Streptococcus sp.; [3]): <0.12 µg/mL
- MIC Streptococcus pyogenes (GC 4563) (Streptococcus sp.; [3]): <0.12 µg/mL
- MIC Staphylococcus aureus (ATCC 29213) (Staphylococcus sp.; strain ATCC 29213): 1 µg/mL (≈ 0.698 µM)
- MIC Staphylococcus aureus (GC 1131) (Staphylococcus sp.; strain GC 1131): 2 µg/mL (≈ 1.4 µM)
- MIC Staphylococcus aureus (GC 3051) (Staphylococcus sp.; strain GC 3051): 2 µg/mL (≈ 1.4 µM)
- MIC Staphylococcus aureus (GC 3053) (Staphylococcus sp.; strain GC 3053): 1 µg/mL (≈ 0.698 µM)
- MIC Staphylococcus aureus (GC 4541) (Staphylococcus sp.; strain GC 4541): 2 µg/mL (≈ 1.4 µM)
- MIC Staphylococcus aureus (GC 4542) (Staphylococcus sp.; strain GC 4542): 2 µg/mL (≈ 1.4 µM)
- MIC Staphylococcus aureus-SMITH (GC 4543) (Staphylococcus sp.; strain GC 4543): 2 µg/mL (≈ 1.4 µM)
- MIC Staphylococcus aureus (GC 4544) (Staphylococcus sp.; strain GC 4544): 2 µg/mL (≈ 1.4 µM)
- MIC Staphylococcus aureus (GC 4545) (Staphylococcus sp.; strain GC 4545): 2 µg/mL (≈ 1.4 µM)
- MIC Staphylococcus haemolyticus (GC 4546) (Staphylococcus sp.; strain GC 4546): 2 µg/mL (≈ 1.4 µM)
- MIC Coagulase Negative Staphylococcus (GC 4547) (Staphylococcus sp.; strain GC 4547): 2 µg/mL (≈ 1.4 µM)
- MIC Coagulase Negative Staphylococcus (GC 4548) (Staphylococcus sp.; strain GC 4548): 1 µg/mL (≈ 0.698 µM)
- MIC Coagulase Negative Staphylococcus (GC 4549) (Staphylococcus sp.; strain GC 4549): 1 µg/mL (≈ 0.698 µM)
- MIC Coagulase Negative Staphylococcus (GC 4551) (Staphylococcus sp.; strain GC 4551): 2 µg/mL (≈ 1.4 µM)
- MIC Escherichia coli (ATCC 25922) (Escherichia coli; Escherichia coli (ATCC 25922)): 64 µg/mL (≈ 44.6 µM)
- MIC Escherichia coli (GC 4559) (Escherichia coli; Escherichia coli (GC 4559)): 32 µg/mL (≈ 22.3 µM)
- MIC Escherichia coli (GC 4560) (Escherichia coli; Escherichia coli (GC 4560)): 2 µg/mL (≈ 1.4 µM)
- Anatomical Pathology (Day 10), Heart [1]: 0
- Anatomical Pathology (Day 10), Kidney [1]: 0
- median effective dose (ED50), Staphylococcus aureus-SMITH (GC 4543) [2]: 0.03 mg/kg
